{"source": "paper PMC8597745", "about": "“The Antimicrobial Peptide MK58911-NH2 Acts on Planktonic, Biofilm, and Intramacrophage Cells of Cryptococcus neoformans” (Antimicrobial Agents and Chemotherapy, 2021)", "key": {"in vitro [1]": {"assay": "in vitro", "conditions": "human, MRC5 pulmonary fibroblasts", "quoted_text": "(§4) The impact of peptides on the viability of pulmonary fibroblasts (MRC5) was also evaluated. Cells were cultured in Dulbecco’s high-glucose modified Eagle medium (DMEM; Gibco, Thermo Fisher Scientific) supplemented with 10% fetal bovine serum (FBS) in 25-cm^2 flasks. For the assay, cells were seeded into 96-well plates at 5 × 10^4 cells/well. The cells were left to grow at 37°C in a 5% CO2 incubator for 24 h until they reached confluence. […] DMEM and dimethyl sulfoxide (DMSO) were used as the positive and negative controls, respectively. The plates were then incubated at 37°C in a 5% CO2 incubator for 24 h. Resazurin (0.01%; Sigma-Aldrich) was then used to assess the viability of the cells according to the manufacturer’s instructions. After 4 h of incubation at 37°C in a 5% CO2 incubator, the fluorescence intensity was measured using a microplate reader (BioTek) at 570 to 600 nm. The fluorescence values were normalized by the positive control and expressed as a percentage of metabolic activity. Values for the 50% inhibitory concentration (IC50) were calculated. Three independent experiments were performed."}, "C. gattii": {"test_system": "C. gattii", "assay": "microbe, parasite or virus in culture", "conditions": "48 h; for C. gattii MIC: 37°C, RPMI 1640, visual reading; for MIC: Cryptococcus gattii, read-out: C. gattii MIC", "procedure": "(§1) C. neoformans ATCC 90112 and C. gattii ATCC 56990 were purchased from the collection of the Laboratory of Clinical Mycology, Faculty of Pharmaceutical Sciences of UNESP, Araraquara, Brazil. Cryptococcus species were grown at 30°C for 48 to 72 h in Sabouraud dextrose agar.\n(§2) Anti-Cryptococcus activity was determined by the broth microdilution method according to document M27-A3 from the Clinical and Laboratory Standards Institute ([47]). Briefly, 100 μl of a fungal suspension at […] in RPMI 1640 medium was added to each well of the 96-well plate. Subsequently, 100 μl of MK58911-NH2, MK58911(1–7)-OH, MK58911(8–14)-NH2, MK58911(4–11)-OH, and MH58911 (0.48 to 250 μg/ml); amphotericin B (0.016 to 8 μg/ml); and fluconazole (0.063 to 32 μg/ml), all diluted in RPMI 1640 medium, was added to the plate. The fungal suspension and RPMI 1640 medium were used as the positive and negative controls, respectively. The plate was incubated at 37°C at 150 rpm for 48 h. Next, fungal growth was visually observed, and the MIC was determined. Three independent experiments were performed."}, "C. neoformans [2]": {"test_system": "C. neoformans", "assay": "microbe, parasite or virus in culture", "conditions": "48 h; for C. neoformans MIC: 37°C, RPMI 1640, visual reading; for MIC: Cryptococcus neoformans, read-out: C. neoformans MIC", "procedure": "as §1, §2"}, "in vitro [3]": {"assay": "in vitro", "conditions": "mouse, J774 macrophages", "quoted_text": "as §4\nThe impact of peptides on the viability of macrophages (J774) was also evaluated as described above for MRC5 cells."}, "[4]": {"test_system": "C. neoformans mature biofilm", "assay": "Antibiofilm activity, mature biofilm at 48 h (XTT reduction)", "type": "cell-based, Cryptococcus neoformans", "quoted_text": "(§5) Briefly, C. neoformans was grown in Sabouraud dextrose broth at 30°C at 150 rpm for 24 h. To evaluate the effect of peptides on biofilm formation, a fungal suspension of 1 × 10^7 cells/ml in minimal medium (20 mg/ml thiamine, 30 mM glucose, 26 mM glycine, 20 mM MgSO4·7H2O, 58.8 mM KH2PO4) was prepared, and 100 μl of the suspension was added to individual wells of 96-well polystyrene plates (TPP, Switzerland). […] The plate was incubated at 37°C for 48 h. To evaluate the effect of the peptides on the mature biofilm, 100 μl of the fungal suspension was added to individual wells of a 96-well plate, and the plate was incubated at 37°C for 48 h. After that period, the supernatant was removed, and the peptides and drugs were added. The plate was again incubated at 37°C for 48 h. The metabolic activity of the biofilms was quantified by the 2,3-bis(2-methoxy-4-nitro-5-sulfophenyl)-5-[(phenylamino)carbonyl]-2H-tetrazolium hydroxide (XTT) reduction assay. For this, a solution with 50 μl of XTT (1 mg/ml in PBS) and 4 μl of menadione (1 mM in ethanol; Sigma-Aldrich, São Paulo, SP, Brazil) was added to each well of the 96-well plate. After 3 h of incubation at 37°C, the fluorescence intensity was measured using a microplate reader (BioTek) at 490 nm. Subsequently, the percentage of metabolic activity of the biofilm treated with peptides/drugs was compared to that of the untreated control. […]"}, "C. neoformans [5]": {"test_system": "C. neoformans", "assay": "Zebrafish embryo immersion infection model, fungal burden (CFU)", "type": "in vivo, zebrafish embryos", "conditions": "immersion infection 1 × 10^6 cells/ml, treatment at the MIC for 24 h", "procedure": "(§3) A zebrafish embryo infection model by immersion was used, as previously described for C. albicans, with some modifications ([22]). The housing and breeding of the fish used in this study received appropriate institutional approvals (permit number 01.0082.2014). Briefly, 15 zebrafish embryos at 24 h postfertilization (hpf) and cultured in embryo medium at 28°C were used. Embryos were coincubated in wells with C. neoformans at 1 × 10^6 cells/ml by immersion. The plate was incubated at 28°C at 80 rpm for 24 h. Subsequently, the embryos were washed twice with embryo medium and transferred to a 96-well plate (1 embryo/well). Next, 100 μl of MK58911-NH2, amphotericin B, and fluconazole, all diluted in embryo medium and at the MIC, was added to the wells. The plate was incubated at 28°C at 80 rpm for 24 h. After that, the embryos were lysed individually in 2% Triton X-100–PBS using a 26-gauge needle. A […] dilution was performed in PBS, and 10 μl was plated onto Sabouraud dextrose agar containing 50 mg/liter chloramphenicol. […] The groups were tested in triplicate, and two independent experiments were performed. Images of some embryos 4 h after infection with C. neoformans, labeled with calcofluor white, were acquired with an In Cell Analyzer 2000 microscope (GE)."}, "[6]": {"test_system": "intramacrophage C. neoformans", "assay": "Intramacrophage activity (J774 macrophages infected with C. neoformans, CFU)", "type": "cell-based, Cryptococcus neoformans", "conditions": "treatment at the MIC, 24 h; control 4.5 × 10^3 CFU/well", "procedure": "The medium was used as a positive control. […] Three independent experiments were performed."}, "[7]": {"test_system": "C. neoformans biofilm formation", "assay": "Antibiofilm activity, biofilm formation at 0 h (XTT reduction)", "type": "cell-based, Cryptococcus neoformans", "quoted_text": "as §5"}, "zebrafish embryos": {"test_system": "zebrafish embryos", "assay": "Survival of infected zebrafish embryos under treatment", "type": "in vivo", "conditions": "treatment at the MIC for 24 h", "procedure": "as §3"}}, "note": "No end group written: not given here.", "data": [{"compound": "INWLHIAHHVHGML-NH2 [MH58911-NH2, INWLHIAHHVHGML-NH2]", "values": [{"measurement": "IC50 at 24 h", "setting": "in vitro [1]", "value": "> 500", "unit": "µg/mL"}, {"measurement": "C. gattii MIC", "setting": "C. gattii", "value": ">250", "unit": "µg/mL"}, {"measurement": "C. neoformans MIC", "setting": "C. neoformans [2]", "value": ">250", "unit": "µg/mL"}, {"measurement": "IC50 at 24 h", "setting": "in vitro [3]", "value": "> 250", "unit": "µg/mL"}]}, {"compound": "INWLKIA-OH [MK58911(1–7)-OH, INWLKIA-OH]", "values": [{"measurement": "IC50 at 24 h", "setting": "in vitro [1]", "value": "> 500", "unit": "µg/mL"}]}, {"compound": "LKIAKKVK-OH [MK58911(4–11)-OH, LKIAKKVK-OH]", "values": [{"measurement": "IC50 at 24 h", "setting": "in vitro [1]", "value": "> 500", "unit": "µg/mL"}]}, {"compound": "OC(Cn1cncn1)(Cn1cncn1)c1ccc(F)cc1F", "note": "[Fluconazole]", "values": [{"measurement": "susceptibility of C. neoformans biofilms", "setting": "[4]; biofilms in vitro, corroborates ref 13", "value": "resistant"}, {"measurement": "fungal burden (CFU) of embryos' chorion vs untreated control", "setting": "C. neoformans [5]", "value": "did not reduce the fungal burden"}, {"measurement": "intramacrophagic fungal burden (average)", "setting": "[6]", "value": "1.8 × 10^3 CFU/well"}, {"measurement": "MIC", "setting": "C. gattii", "value": 8, "unit": "µg/mL"}, {"measurement": "MIC", "setting": "C. neoformans [2]", "value": 1, "unit": "µg/mL"}]}, {"compound": "C[C@@H]1[C@H](O)[C@@H](C)/C=C/C=C/C=C/C=C/C=C/C=C/C=C/[C@H](O[C@@H]2O[C@H](C)[C@@H](O)[C@H](N)[C@@H]2O)C[C@@H]2O[C@](O)(C[C@@H](O)C[C@@H](O)[C@H](O)CC[C@@H](O)C[C@@H](O)CC(=O)O[C@H]1C)C[C@H](O)[C@H]2C(=O)O", "note": "[Amphotericin B]", "values": [{"measurement": "concentration at which mature biofilms can be inhibited", "setting": "[4]; mature biofilms", "value": "> 2", "unit": "µg/mL"}, {"measurement": "fungal burden (CFU) of embryos' chorion vs untreated control", "setting": "C. neoformans [5]", "value": "significant reduction in CFU"}, {"measurement": "intramacrophagic fungal burden (average)", "setting": "[6]", "value": "1.1 × 10^3 CFU/well"}, {"measurement": "MIC", "setting": "C. gattii", "value": 0.125, "unit": "µg/mL"}, {"measurement": "MIC", "setting": "C. neoformans [2]", "value": 0.125, "unit": "µg/mL"}, {"measurement": "concentration at which formation of C. neoformans biofilms can be prevented", "setting": "[7]", "value": "> 0.5", "unit": "µg/mL"}]}, {"compound": "INWLKIAKKVKGML-NH2 [MK58911-NH2, INWLKIAKKVKGML-NH2]", "values": [{"measurement": "IC50 at 24 h", "setting": "in vitro [1]", "value": "> 500", "unit": "µg/mL"}, {"measurement": "C. gattii MIC", "setting": "C. gattii", "value": 15.63, "unit": "µg/mL"}, {"measurement": "C. neoformans MIC", "setting": "C. neoformans [2]", "value": 31.25, "unit": "µg/mL"}, {"measurement": "embryo survival under treatment", "setting": "zebrafish embryos", "value": "All embryos survived"}, {"measurement": "IC50 at 24 h", "setting": "in vitro [3]", "value": 62.5, "unit": "µg/mL"}]}, {"compound": "KKVKGML-NH2 [MK58911(8–14)-NH2, KKVKGML-NH2]", "values": [{"measurement": "IC50 at 24 h", "setting": "in vitro [1]", "value": "> 500", "unit": "µg/mL"}, {"measurement": "C. gattii MIC", "setting": "C. gattii", "value": ">250", "unit": "µg/mL"}, {"measurement": "C. neoformans MIC", "setting": "C. neoformans [2]", "value": ">250", "unit": "µg/mL"}]}]}
